Laboratory results as given in patent US7732618B2, “Benzimidazole acetic acids exhibiting CRTH2 receptor antagonism and uses thereof” (Wyeth, priority 2004, dated 2010).

Biological target: T1, human CRTH2 (Homo sapiens, UniProt Q9Y5Y4)
T1 sequence (Q9Y5Y4 1-395): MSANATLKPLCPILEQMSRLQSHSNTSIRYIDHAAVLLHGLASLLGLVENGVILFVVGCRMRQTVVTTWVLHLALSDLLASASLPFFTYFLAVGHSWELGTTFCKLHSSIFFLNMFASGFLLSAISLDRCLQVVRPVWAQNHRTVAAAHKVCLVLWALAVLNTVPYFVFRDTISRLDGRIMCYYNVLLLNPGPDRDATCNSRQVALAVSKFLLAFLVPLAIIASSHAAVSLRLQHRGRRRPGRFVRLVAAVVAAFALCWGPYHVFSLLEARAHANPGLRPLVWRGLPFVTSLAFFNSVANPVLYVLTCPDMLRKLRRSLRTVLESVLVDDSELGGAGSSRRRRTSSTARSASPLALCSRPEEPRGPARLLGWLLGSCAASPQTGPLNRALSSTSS
Assay: CRTH-2 binding assay (scintillation proximity assay, inhibition of 3H-PGD2 binding)
Design: expressed in transfected cells; host or cells: 293EBNA-hCRTH2 cells (membrane preparation)
Settings: membranes from 293EBNA-hCRTH2 cells, 3H-PGD2 3.6 nM; Ki calculated from IC50
Experimental: A CRTH2 binding assay was developed to measure the ability of compounds to inhibit the binding of PGD2 to human CRTH2 using a scintillation proximity assay.
Membranes containing hCRTH2 receptors were prepared from 293EBNA-hCRTH2 cells (a 293EBNA cell line stably expressing human CRTH2). The cells were grown to confluency, harvested and washed with PBS. The cells were resuspended in 10 mM Hepes pH 7.4, 1 mM EDTA and protease inhibitors and incubated for 30 min on ice. The cells were homogenized and centrifuged for 10 min at 1000×g. The supernate was centrifuged for 30 min at 100,000×g and the membrane pellet was then resuspended in 10 mM Hepes pH 7.4 and 1 mM EDTA. The protein concentration of the membrane preparation was determined by Bradford assay (Bio-Rad).
The ability of compounds to inhibit the interaction of PGD2 to human CRTH2 was determined at seven compound concentrations. Compounds were serially diluted in DMSO then diluted into CRTH2 buffer (10 mM Hepes pH 7.4, 1 mM EDTA, 10 mM MnCl2) to six times the final desired concentration. 20 μL of the diluted compounds were transferred into non-surface binding 96-well plates (Corning). Each concentration was done in triplicate. In addition to test compounds, each plate contained 12 control wells. Six of these wells contained 20 μL of CRTH2 buffer. These wells were used to measure total binding. Six wells contained 20 μL of CRTH2 buffer plus 1.5 mM indomethacin. These wells were used to measure non-specific binding. Next, 293EBNA-hCRTH2 membranes were resuspended in CRTH2 buffer with glycerol (10 mM Hepes pH 7.4, 1 mM EDTA, 10 mM MnCl2, 25% glycerol) so that the final concentration was approximately 20 μg/100 μL. Polylysine-coated yttrium silicate SPA beads (Amersham) were added to the membrane mix to a concentration of 0.4 mg/100 μL and finally ^3H-PGD2 was added to the membrane/SPA bead mix to 3.6 nM. 100 μL of the membrane/SPA bead/^3H-PGD2 mix was added to each well of the non-surface binding plates containing the diluted compound or controls. The plates were incubated for 2 hours at room temperature with shaking and then the plates were counted on a Microbeta scintillation counter (Perkin Elmer) for 1 min per well.
IC50 values were determined from the experimental results by nonlinear regression using Prism 4.0 software. The IC50 values were then used in conjunction with the Kd for hCRTH2 and the ^3H-PGD2 concentration used in the experiment to calculate the Ki for each compound.

SMILES	Ki [nM]
CCCc1nc2cc(N(Cc3ccccc3)C(=O)c3ccc(F)cc3)ccc2n1CC(=O)O [Example 66, {5-[Benzyl-(4-fluoro-benzoyl)-amino]-2-propyl-benzoimidazol-1-yl}-acetic acid]	< 1000
CC(C)c1nc2cc(NS(=O)(=O)c3ccc(F)cc3)ccc2n1CC(=O)O [Example 13, [5-(4-Fluoro-benzenesulfonylamino)-2-isopropyl-benzoimidazol-1-yl]-acetic acid]	< 1000
CCCc1nc2cc(N(Cc3ccccc3)C(=O)C3CCCC3)ccc2n1CC(=O)O [Example 60, [5-(Benzyl-cyclopentanecarbonyl-amino)-2-propyl-benzoimidazol-1-yl]-acetic acid]	< 10000
CCCc1nc2cc(N3C(=O)c4ccccc4S3(=O)=O)ccc2n1CC(=O)O [Example 26, [2-Propyl-5-(1,1,3-trioxo-1,3-dihydro-1λ^6-benzo[d]isothiazol-2-yl)-benzoimidazol-1-yl]-acetic acid]	< 10000
CC(C)Cc1nc2cc(NS(=O)(=O)c3ccc(F)cc3)ccc2n1CC(=O)O [Example 7, [5-(4-Fluoro-benzenesulfonylamino)-2-isobutyl-benzoimidazol-1-yl]-acetic acid]	< 10000
C=CCOC(=O)NCCc1nc2cc(NS(=O)(=O)c3ccc(F)cc3)ccc2n1CC(=O)O [Example 11, [2-(2-Allyloxycarbonylamino-ethyl)-5-(4-fluoro-benzenesulfonylamino)-benzoimidazol-1-yl]-acetic acid]	< 10000
CCCc1nc2cc(N(Cc3ccccc3)C(=O)c3sccc3C)ccc2n1CC(=O)O [Example 69, {5-[Benzyl-(3-methyl-thiophene-2-carbonyl)-amino]-2-propyl-benzoimidazol-1-yl}-acetic acid]	< 100
CCCc1nc2cc(N(Cc3ccc(F)cc3)S(=O)(=O)c3ccccc3F)ccc2n1CC(=O)O [Example 28, {5-[(2-Fluoro-benzenesulfonyl)-(4-fluoro-benzyl)-amino]-2-propyl-benzoimidazol-1-yl}-acetic acid]	< 1000
CCCc1nc2cc(NC(=O)OC(C)(C)C)ccc2n1CC(=O)O [Example 25, (5-tert-Butoxycarbonylamino-2-propyl-benzoimidazol-1-yl)-acetic acid]	< 10000
CCCc1nc2cccc(N(Cc3ccccc3)S(=O)(=O)c3ccc(F)cc3)c2n1CC(=O)O [Example 40, {7-[Benzyl-(4-fluoro-benzenesulfonyl)-amino]-2-propyl-benzoimidazol-1-yl}-acetic acid]	> 10000
CCCc1nc2cc(N(Cc3ccccc3Cl)S(=O)(=O)c3ccc(F)cc3)ccc2n1CC(=O)O [Example 41, {5-[(2-Chloro-benzyl)-(4-fluoro-benzenesulfonyl)-amino]-2-propyl-benzoimidazol-1-yl}-acetic acid]	< 100
CCCc1nc2cc(N(Cc3ccc(F)cc3)C(C)=O)ccc2n1CC(=O)O [Example 33, {5-[Acetyl-(4-fluoro-benzyl)-amino]-2-propyl-benzoimidazol-1-yl}-acetic acid]	< 100
CCCCc1nc2cc(N(C)S(=O)(=O)c3ccc(F)cc3)ccc2n1CC(=O)O [Example 17, {2-Butyl-5-[(4-fluoro-benzenesulfonyl)-methyl-amino]-benzoimidazol-1-yl}-acetic acid]	< 1000
CC(C)c1nc2cc(N(Cc3ccccc3)S(=O)(=O)c3ccc(F)cc3)ccc2n1CC(=O)O [Example 16, {5-[Benzyl-(4-fluoro-benzenesulfonyl)-amino]-2-isopropyl-benzoimidazol-1-yl}-acetic acid]	< 1000
CCCc1nc2cc(N(Cc3ccc(F)cc3)S(=O)(=O)c3ccc(F)cc3)ccc2n1CC(=O)O [Example 19, {5-[(4-Fluoro-benzenesulfonyl)-(4-fluoro-benzyl)-amino]-2-propyl-benzoimidazol-1-yl}-acetic acid]	< 100
CCCC(C)c1nc2cc(NS(=O)(=O)c3ccc(F)cc3)ccc2n1CC(=O)O (stereo not drawn) [Example 2, [5-(4-Fluoro-benzenesulfonylamino)-2-(1-methyl-butyl)-benzoimidazol-1-yl]-acetic acid]	< 1000
CCCc1nc2c(N(CCOC)S(=O)(=O)c3cccc(F)c3)cccc2n1CC(=O)O [Example 35, {4-[(3-Fluoro-benzenesulfonyl)-(2-methoxy-ethyl)-amino]-2-propyl-benzoimidazol-1-yl}-acetic acid]	< 10000
CCCc1nc2cc(N(Cc3cccc(C(F)(F)F)c3)S(=O)(=O)c3ccc(F)cc3)ccc2n1CC(=O)O [Example 51, {5-[(4-Fluoro-benzenesulfonyl)-(3-trifluoromethyl-benzyl)-amino]-2-propyl-benzoimidazol-1-yl}-acetic acid]	< 1000
CCCCCc1nc2cc(NS(=O)(=O)c3ccc(F)cc3)ccc2n1CC(=O)O [Example 9, [5-(4-Fluoro-benzenesulfonylamino)-2-pentyl-benzoimidazol-1-yl]-acetic acid]	> 10000

Second part, the molecule after the results:

Ki [nM]	SMILES
< 100	CCCc1nc2cc(N(CCC(C)C)S(=O)(=O)c3ccc(F)cc3)ccc2n1CC(=O)O [Example 20, {5-[(4-Fluoro-benzenesulfonyl)-(3-methyl-butyl)-amino]-2-propyl-benzoimidazol-1-yl}-acetic acid]
< 1000	CCCc1nc2cc(N(Cc3ccc(F)cc3)C(=O)c3ccccc3)ccc2n1CC(=O)O [Example 32, {5-[Benzoyl-(4-fluoro-benzyl)-amino]-2-propyl-benzoimidazol-1-yl}-acetic acid]
< 10000	CCCc1nc2cc(N(Cc3ccccc3)C(=O)c3cccc(F)c3)ccc2n1CC(=O)O [Example 65, {5-[Benzyl-(3-fluoro-benzoyl)-amino]-2-propyl-benzoimidazol-1-yl}-acetic acid]
< 1000	CCCc1nc2cc(N(Cc3cccc(F)c3)S(=O)(=O)c3ccc(F)cc3)ccc2n1CC(=O)O [Example 50, {5-[(4-Fluoro-benzenesulfonyl)-(3-fluoro-benzyl)-amino]-2-propyl-benzoimidazol-1-yl}-acetic acid]
< 10000	CC/C=C/c1nc2cc(NS(=O)(=O)c3ccc(F)cc3)ccc2n1CC(=O)O [Example 6, [2-But-1-enyl-5-(4-fluoro-benzenesulfonylamino)-benzoimidazol-1-yl]-acetic acid]
< 100	CCCc1nc2cc(N(Cc3cccc(Cl)c3)S(=O)(=O)c3ccc(F)cc3)ccc2n1CC(=O)O [Example 42, {5-[(3 -Chloro-benzyl)-(4-fluoro-benzenesulfonyl)-amino]-2-propyl-benzoimidazol-1-yl}-acetic acid]
< 1000	CCCc1nc2c(N(CCC(C)C)S(=O)(=O)c3cccc(F)c3)cccc2n1CC(=O)O [Example 36, {4-[(3-Fluoro-benzenesulfonyl)-(3-methyl-butyl)-amino]-2-propyl-benzoimidazol-1-yl}-acetic acid]
< 1000	CCCc1nc2cc(N(Cc3ccccc3C#N)S(=O)(=O)c3ccc(F)cc3)ccc2n1CC(=O)O [Example 54, {5-[(2-Cyano-benzyl)-(4-fluoro-benzenesulfonyl)-amino]-2-propyl-benzoimidazol-1-yl}-acetic acid]
> 10000	CC(Cc1nc2cc(NS(=O)(=O)c3ccc(F)cc3)ccc2n1CC(=O)O)CC(C)(C)C (stereo not drawn) [Example 8, [5-(4-Fluoro-benzenesulfonylamino)-2-(2,4,4-trimethyl-pentyl)-benzoimidazol-1-yl]-acetic acid]
> 10000	CCCc1nc2cc(N(Cc3ccccc3)C(=O)C(C)C)ccc2n1CC(=O)O [Example 58, [5-(Benzyl-isobutyryl-amino)-2-propyl-benzoimidazol-1-yl]-acetic acid]
< 1000	CCCc1nc2cc(N(Cc3csc(C)n3)S(=O)(=O)c3ccc(F)cc3)ccc2n1CC(=O)O [Example 22, {5-[(4-Fluoro-benzenesulfonyl)-(2-methyl-thiazol-4-ylmethyl)-amino]-2-propyl-benzoimidazol-1-yl}-acetic acid]
